In patent US20100028839A1, “METHODS AND SYSTEMS FOR EVALUATING MEMORY AGENTS” (priority 2008, published 2010):
“And” between values parts separate entries of the source, which are not always exact repeats. Identical values can stand only once.

How the values were obtained:
aged male macaques [1] = test: Discrimination Learning - Long Term Retrieval task (DL LTR); type: in vivo; settings: for RT 1-14 (retention test trials 1 to 14), mean / RT 15-28 (retention test trials 15 to 28), mean / retention test, mean / RT overall / RT trials 1-14 / RT trials 15-28: day 8 post-criterion; for RT overall / RT trials 1-14 / RT trials 15-28: raw data of individual animals; for C value / Days to C: raw data of individual animals (Old-1, -2, -5, -7, -8, -9)
Method: (§1) The study was conducted using 6 aged male macaques (age approximately 22 years at onset of the study which is equivalent to approximately 66 human years) previously trained to performed certain memory tasks. Assessments of memory performance used the CANTAB system (the Cambridge Neuropsychological Test Automated Battery) and a new task.
In this task, animals are presented with 2 pairs of stimuli (e.g. 1 pair of shapes and 1 pair of lines) over the course of a daily test session. For each pair of stimuli, one stimulus is arbitrarily designated as the positive stimulus (i.e., touch of that stimulus is rewarded). Each pair of stimuli is presented 14 times during a daily session that consists of 28 trials. The pairs of stimuli (shapes or lines) are presented in a pseudo randomized fashion during each session. Animals have to touch the “positive” shape or line in order to receive a sugar pellet reward accompanied by a pleasant tone. Touching the alternative shape or line results in a negative tone, no sugar pellet and a time out. Animals are tested daily until they reach a performance criterion of 85% correct responses during a daily session. When this criterion is reached, animals receive no further testing for the next 7 days. On day 8 post-criterion, animals are tested again using the same pairs of stimuli that they have seen previously learned in order to assess long term retrieval of the learned discriminations.
(§2) All drugs were administered orally in marshmallow while the animal was in a specially designed testing cage. Vehicle was marshmallow alone.
(§3) Treatments were administered sequentially starting with treatment 1. Each treatment (dose of HT-0712 or vehicle) was administered once per day for 4 days before behavioral training began and then continued at 1 treatment (dose of HT-0712 or vehicle) per day, delivered four hours before testing, for the duration of the training period. When each individual animal reached performance criterion of at least 85% correct responses during a daily session, training and dosing ceased for seven days. Then, on post-criterion day 8, animals were tested again on the DL LTR task (retention testing).
The percent correct responses on the total number of daily trials were recorded as well as the number of days needed to reach the criterion (at least 85% correct responses in a single test session). The percent correct responses on the retention trial was recorded for the entire retention trial session and sub-analyzed for performance differences on trials 1-14 versus trials 15-28.
Data from vehicle trials were compared to data from drug trials using a one way ANOVA. Post hoc comparisons were made using the Bonferroni t-test.

aged male macaques [2] = test: Observation of behavioral or physical side effects during the DL LTR study; type: in vivo; settings: any dose given (1, 10, 100 mg/kg p.o. daily)
Method: as §1, §2, §3
Data from this non-responder were removed from the statistical analysis.

aged rats = settings: treatment of aged rats; cited from earlier work
[3] = 1 mg/kg p.o. daily, excluding NHP old-9 (N=5), mean±s.e.m.
[4] = 1 mg/kg p.o. daily, including NHP old-9 (N=6)
[5] = 1 mg/kg p.o. daily, entire study group including NHP old-9 (N=6)
[6] = 1 mg/kg p.o. daily, excluding non-responder NHP old-9 (N=5), mean±s.e.m.
[7] = 10 mg/kg p.o. daily, excluding NHP old-9 (N=5), mean±s.e.m.
[8] = 10 mg/kg p.o. daily, including NHP old-9 (N=6)
[9] = 10 mg/kg p.o. daily, entire study group including NHP old-9 (N=6)
[10] = 10 mg/kg p.o. daily, excluding non-responder NHP old-9 (N=5), mean±s.e.m.
[11] = 100 mg/kg p.o. daily, excluding NHP old-9 (N=5), mean±s.e.m.
[12] = 100 mg/kg p.o. daily, including NHP old-9 (N=6)
[13] = 100 mg/kg p.o. daily, entire study group including NHP old-9 (N=6)
[14] = 100 mg/kg p.o. daily, excluding non-responder NHP old-9 (N=5), mean±s.e.m.

COc1ccc([C@H]2CNC(=O)[C@H](Cc3cccc(C)c3)C2)cc1OC1CCCC1 [HT-0712]
RT 1-14 (retention test trials 1 to 14), mean (aged male macaques [1]; [3]): 80.2±6.2 % correct responses and 80.200 % correct responses
RT 15-28 (retention test trials 15 to 28), mean (aged male macaques [1]; [3]): 91.6±3.4 % correct responses and 91.600 % correct responses
retention test, mean (aged male macaques [1]; [3]): 85.8±4.6 % correct responses and 85.800 % correct responses
RT 1-14 (retention test trials 1 to 14), mean (aged male macaques [1]; [4]): 77.500 % correct responses
RT 15-28 (retention test trials 15 to 28), mean (aged male macaques [1]; [4]): 88.167 % correct responses
retention test, mean (aged male macaques [1]; [4]): 82.833 % correct responses
RT overall (aged male macaques [1]; 1 mg/kg p.o. daily): 89.00 % correct responses and 68.00 % correct responses (2×) and 93.00 % correct responses (2×) and 86.00 % correct responses
RT trials 1-14 (aged male macaques [1]; 1 mg/kg p.o. daily): 86.00 % correct responses (2×) and 64.00 % correct responses and 93.00 % correct responses and 79.00 % correct responses and 57.00 % correct responses
RT trials 15-28 (aged male macaques [1]; 1 mg/kg p.o. daily): 93.00 % correct responses (3×) and 71.00 % correct responses and 100.00 % correct responses and 79.00 % correct responses
C value (criterion value reached), mean (aged male macaques [1]; [5]): 91.000 % correct responses
day to C (days to reach criterion), mean (aged male macaques [1]; [5]): 12.667 days
C value (criterion value reached), mean (aged male macaques [1]; [6]): 91.4±1.8 % correct responses and 91.400 % correct responses
day to C (days to reach criterion), mean (aged male macaques [1]; [6]): 12.0 ± 3.6 days and 12.000 days
C value (aged male macaques [1]; 1 mg/kg p.o. daily): 96.00 % correct responses and 89.00 % correct responses (2×) and 86.00 % correct responses and 93.00 % correct responses (2×)
Days to C (aged male macaques [1]; 1 mg/kg p.o. daily): 4 days and 17 days and 15 days and 3 days and 21 days and 16 days
RT 1-14 (retention test trials 1 to 14), mean (aged male macaques [1]; [7]): 71.4±3.4 % correct and 71.400 % correct
RT 15-28 (retention test trials 15 to 28), mean (aged male macaques [1]; [7]): 87.2±4.8 % correct and 87.200 % correct
retention test, mean (aged male macaques [1]; [7]): 79.2±3.5 % correct responses and 79.200 % correct responses
RT 1-14 (retention test trials 1 to 14), mean (aged male macaques [1]; [8]): 73.833 % correct responses
RT 15-28 (retention test trials 15 to 28), mean (aged male macaques [1]; [8]): 87.000 % correct responses
retention test, mean (aged male macaques [1]; [8]): 80.333 % correct responses
RT overall (aged male macaques [1]; 10 mg/kg p.o. daily): 89.00 % correct responses and 86.00 % correct responses (2×) and 75.00 % correct responses (2×) and 71.00 % correct responses
RT trials 1-14 (aged male macaques [1]; 10 mg/kg p.o. daily): 79.00 % correct responses (2×) and 86.00 % correct responses and 64.00 % correct responses (2×) and 71.00 % correct responses
RT trials 15-28 (aged male macaques [1]; 10 mg/kg p.o. daily): 100.00 % correct responses and 86.00 % correct responses (3×) and 71.00 % correct responses and 93.00 % correct responses
C value (criterion value reached), mean (aged male macaques [1]; [9]): 89.333 % correct responses
day to C (days to reach criterion), mean (aged male macaques [1]; [9]): 14.000 days
C value (criterion value reached), mean (aged male macaques [1]; [10]): 90.0±2.6 % correct responses and 90.000 % correct responses
day to C (days to reach criterion), mean (aged male macaques [1]; [10]): 11.8 ± 2.3 days and 11.800 days
C value (aged male macaques [1]; 10 mg/kg p.o. daily): 89.00 % correct responses (2×) and 86.00 % correct responses (3×) and 100.00 % correct responses
Days to C (aged male macaques [1]; 10 mg/kg p.o. daily): 18 days and 9 days and 5 days and 12 days and 15 days and 25 days
RT 1-14 (retention test trials 1 to 14), mean (aged male macaques [1]; [11]): 58.4±4.1 % correct and 58.400 % correct
RT 15-28 (retention test trials 15 to 28), mean (aged male macaques [1]; [11]): 71.4±6.1 % correct and 71.400 % correct
retention test, mean (aged male macaques [1]; [11]): 65.0±3.5 % correct responses and 65.000 % correct responses
RT 1-14 (retention test trials 1 to 14), mean (aged male macaques [1]; [12]): 59.333 % correct responses
RT 15-28 (retention test trials 15 to 28), mean (aged male macaques [1]; [12]): 72.667 % correct responses
retention test, mean (aged male macaques [1]; [12]): 66.000 % correct responses
RT overall (aged male macaques [1]; 100 mg/kg p.o. daily): 75.00 % correct responses and 71.00 % correct responses and 57.00 % correct responses (2×) and 68.00 % correct responses (2×)
RT trials 1-14 (aged male macaques [1]; 100 mg/kg p.o. daily): 64.00 % correct responses (2×) and 50.00 % correct responses (2×) and 57.00 % correct responses and 71.00 % correct responses
RT trials 15-28 (aged male macaques [1]; 100 mg/kg p.o. daily): 86.00 % correct responses (2×) and 79.00 % correct responses and 64.00 % correct responses (2×) and 57.00 % correct responses
C value (criterion value reached), mean (aged male macaques [1]; [13]): 86.333 % correct responses
day to C (days to reach criterion), mean (aged male macaques [1]; [13]): 10.333 days
C value (criterion value reached), mean (aged male macaques [1]; [14]): 86.4±0.7 % correct responses and 86.400 % correct responses
day to C (days to reach criterion), mean (aged male macaques [1]; [14]): 9.0 ± 2.8 days and 9.000 days
C value (aged male macaques [1]; 100 mg/kg p.o. daily): 85.00 % correct responses and 86.00 % correct responses (4×) and 89.00 % correct responses
Days to C (aged male macaques [1]; 100 mg/kg p.o. daily): 11 days and 3 days and 10 days and 18 days and 17 days
animals with improved memory performance (decrease in the number of days needed to reach criterion) (aged male macaques [1]; 1, 10, 100 mg/kg p.o., six aged macaques): Five of the six
days to criterion versus vehicle (aged male macaques [1]; each dose (1, 10, 100 mg/kg p.o.), Bonferroni t-test, p<0.050, old-9 excluded): significant decrease
learning ability and long term memory of normal aged non-human primates (aged male macaques [1]; summary of study): significantly improves
behavioral or physical side effects (aged male macaques [2]): no noticeable behavioral or physical side effects

COc1ccc(C2CNC(=O)C2)cc1OC1CCCC1 (centres unmarked) [rolipram]
age-dependent loss of hippocampal-dependent memory and cellular long-term potentiation (aged rats): ameliorates
